Results published in paper PMC3773576 (Cell Research, 2013).

Assays:
[1] = biological target: T1, KCNQ2 potassium channel (Kv7.2) (Homo sapiens, UniProt O43526); test: whole-cell voltage clamp in CHO cells; format: cell-based
[2] = biological target: T1, KCNQ2 potassium channel (Kv7.2); test: whole-cell voltage clamp in CHO cells, with VSD mutagenesis; format: cell-based

T1 sequence (O43526 whole entry): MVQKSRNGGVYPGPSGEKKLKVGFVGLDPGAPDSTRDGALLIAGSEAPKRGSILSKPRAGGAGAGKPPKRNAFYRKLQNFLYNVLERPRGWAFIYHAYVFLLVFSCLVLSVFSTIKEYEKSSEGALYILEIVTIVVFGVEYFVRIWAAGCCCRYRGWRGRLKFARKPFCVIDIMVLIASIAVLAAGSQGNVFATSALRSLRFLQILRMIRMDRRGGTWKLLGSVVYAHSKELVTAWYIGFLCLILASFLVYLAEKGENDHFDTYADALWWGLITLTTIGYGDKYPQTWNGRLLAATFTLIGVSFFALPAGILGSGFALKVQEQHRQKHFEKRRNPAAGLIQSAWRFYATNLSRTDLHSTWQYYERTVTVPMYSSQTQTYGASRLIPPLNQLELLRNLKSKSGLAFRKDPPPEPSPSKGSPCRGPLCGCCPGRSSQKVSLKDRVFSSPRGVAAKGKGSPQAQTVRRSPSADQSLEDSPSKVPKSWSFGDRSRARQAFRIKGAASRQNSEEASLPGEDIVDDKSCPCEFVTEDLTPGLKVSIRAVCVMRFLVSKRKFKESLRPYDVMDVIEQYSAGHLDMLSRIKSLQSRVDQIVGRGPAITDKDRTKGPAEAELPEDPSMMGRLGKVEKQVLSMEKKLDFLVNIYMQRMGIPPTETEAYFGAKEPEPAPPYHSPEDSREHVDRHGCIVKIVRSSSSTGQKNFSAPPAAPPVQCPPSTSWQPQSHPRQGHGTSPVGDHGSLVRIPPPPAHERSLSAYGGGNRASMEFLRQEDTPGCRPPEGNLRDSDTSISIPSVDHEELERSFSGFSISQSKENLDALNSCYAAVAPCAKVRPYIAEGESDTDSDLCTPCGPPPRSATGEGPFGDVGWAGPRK

| SMILES | whole-cell voltage clamp in CHO cells [1] | EC50 [2] |
| --- | --- | --- |
| O=C(Nc1ccc(Cl)nc1)c1ccccc1 [YGP1, N-(6-Chloropyridin-3-yl)benzamide] | Electrophysiological recording showed that YGP1 still exhibited potentiation activity on KCNQ2 as ztz240 did | – |
| O=C(Nc1ccc(Cl)nc1)c1ccc(F)cc1 [ztz240] | – | 2810 nM |
